Source: patent US8076487B2, “Pyridone derivative and herbicide” (Kumiai Chemical Industry Co., Ltd., priority 2006, dated 2011)

Key:
Assay type in all cases: in vivo
[1] = tested on: green foxtail (Setaria viridis (L.) P. Beauv.); test: Test Example 2: herbicidal effect by soil application to upland field; details: soil surface spray, upland field soil, 1,000 g active ingredient per hectare, 21st day after application
Method in brief: (§1)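 Soil surface treatment after sowing: wettable powder in water, 1,000 g a.i./ha, spray volume 1,000 L/ha. Greenhouse. Scored on a standard herbicidal scale at day 21.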

[2] = tested on: slender amaranth (Amaranthus viridis L.); test: as above; details: soil surface spray, upland field soil, 1,000 g active ingredient per hectare, 21st day after application
Method in brief: as §1

[3] = tested on: barnyardgrass (Echinochloa crus-galli (L.) P. Beauv. var. crus-galli); test: as above; details: soil surface spray, upland field soil, 1,000 g active ingredient per hectare, 21st day after application
Method in brief: as §1

[4] = tested on: velvetleaf (Abutilon theophrasti medicus); test: as above; details: soil surface spray, upland field soil, 1,000 g active ingredient per hectare, 21st day after application
Method in brief: as §1

[5] = tested on: green foxtail (Setaria viridis (L.) P. Beauv.); test: Test Example 3: herbicidal effect by application to upland field (foliage treatment); details: 14th day after application; for herbicidal effect, Green Foxtail: foliage treatment, 1,000 g active ingredient per 1 hectare, greenhouse; for herbicidal effect (index), Green Foxtail: foliage treatment, plants grown two weeks, 1,000 g active ingredient per hectare
Method in brief: (§2)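 Read-out is a visual herbicidal-effect grade on a standard scale, taken on the 14th day after a single foliar spray. The spray was wettable powder diluted in water, 1,000 g active ingredient/ha at 1,000 L/ha, applied to greenhouse plants two weeks after sowing.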

[6] = tested on: slender amaranth (Amaranthus viridis L.); test: as above; details: 14th day after application; for herbicidal effect, Slender Amaranth: foliage treatment, 1,000 g active ingredient per 1 hectare, greenhouse; for herbicidal effect (index), Slender Amaranth: foliage treatment, plants grown two weeks, 1,000 g active ingredient per hectare
Method in brief: as §2

[7] = tested on: barnyardgrass (Echinochloa crus-galli (L.) P. Beauv. var. crus-galli); test: as above; details: 14th day after application; for herbicidal effect, Barnyardgrass: foliage treatment, 1,000 g active ingredient per 1 hectare, greenhouse; for herbicidal effect (index), Barnyardgrass: foliage treatment, plants grown two weeks, 1,000 g active ingredient per hectare
Method in brief: as §2

[8] = tested on: velvetleaf (Abutilon theophrasti medicus); test: as above; details: 14th day after application; for herbicidal effect, Velvetleaf: foliage treatment, 1,000 g active ingredient per 1 hectare, greenhouse; for herbicidal effect (index), Velvetleaf: foliage treatment, plants grown two weeks, 1,000 g active ingredient per hectare
Method in brief: as §2

[9] = tested on: Japanese bulrush (Scirpus juncoides Roxb.); test: Test Example 1: herbicidal effect by soil application to paddy field; details: paddy field soil application; active ingredient 1,000 g per 1 hectare; wettable powder added dropwise to water surface the day after sowing; examined on the 21st day after application
Method in brief: (§3)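 Under greenhouse conditions, seeds sown on puddled paddy soil in 100 cm2 pots under 3 cm of standing water received the test compound; injury was assessed with a standard scoring scheme three weeks (day 21) after treatment.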

[10] = tested on: heartshape false pickerelweed (Monochoria vaginalis (Burm.f.) C.Presl); test: as above; details: paddy field soil application; active ingredient 1,000 g per 1 hectare; wettable powder added dropwise to water surface the day after sowing; examined on the 21st day after application
Method in brief: as §3

[11] = tested on: early watergrass (Echinochloa oryzicola Vasing); test: as above; details: paddy field soil application; active ingredient 1,000 g per 1 hectare; wettable powder added dropwise to water surface the day after sowing; examined on the 21st day after application
Method in brief: as §3

Structure (SMILES)	herbicidal effect (index), Green Foxtail [1]	herbicidal effect (index), Slender Amaranth [2]	herbicidal effect (index), Barnyardgrass [3]	herbicidal effect (index), Velvetleaf [4]	herbicidal effect, Green Foxtail [5]	herbicidal effect, Slender Amaranth [6]	herbicidal effect, Barnyardgrass [7]	herbicidal effect, Velvetleaf [8]	herbicidal effect, Scirpus juncoides Roxb. [9]	herbicidal effect, Monochoria vaginalis (Burm. f.) C. Presl [10]	herbicidal effect, Echinochloa oryzicola Vasing [11]	herbicidal effect (index), Green Foxtail [5]	herbicidal effect (index), Slender Amaranth [6]	herbicidal effect (index), Barnyardgrass [7]	herbicidal effect (index), Velvetleaf [8]
CCCS(=O)(=O)Oc1c(C(=O)c2ccc(C(F)(F)F)n(CC3CCCO3)c2=O)cnn1C (stereo not shown) [IV-140]	5 (90% or more of herbicidal effect and crop phytotoxicity)	5 (90% or more of herbicidal effect and crop phytotoxicity)	5 (90% or more of herbicidal effect and crop phytotoxicity)	5 (90% or more of herbicidal effect and crop phytotoxicity)	3 (50 to less than 70% of herbicidal effect and crop phytotoxicity)	5 (90% or more of herbicidal effect and crop phytotoxicity)	5 (90% or more of herbicidal effect and crop phytotoxicity)	5 (90% or more of herbicidal effect and crop phytotoxicity)	5 (90% or more of herbicidal effect and crop phytotoxicity)	5 (90% or more of herbicidal effect and crop phytotoxicity)	5 (90% or more of herbicidal effect and crop phytotoxicity)	–	–	–	–
CCCCCCn1c(C(F)(F)F)ccc(C(=O)C2=C(O)CCCC2=O)c1=O [I-9]	4 (70 to less than 90% of herbicidal effect and crop phytotoxicity)	5 (90% or more of herbicidal effect and crop phytotoxicity)	4 (70 to less than 90% of herbicidal effect and crop phytotoxicity)	5 (90% or more of herbicidal effect and crop phytotoxicity)	–	–	–	–	5 (90% or more of herbicidal effect and crop phytotoxicity)	5 (90% or more of herbicidal effect and crop phytotoxicity)	5 (90% or more of herbicidal effect and crop phytotoxicity)	4 (70 to less than 90% of herbicidal effect and crop phytotoxicity)	5 (90% or more of herbicidal effect and crop phytotoxicity)	5 (90% or more of herbicidal effect and crop phytotoxicity)	5 (90% or more of herbicidal effect and crop phytotoxicity)
CC1(C)C(=O)C(C(=O)c2ccc(C(F)(F)F)n(-c3ccccc3)c2=O)=C(O)C(C)(C)C1=O [II-41]	5 (90% or more of herbicidal effect and crop phytotoxicity)	5 (90% or more of herbicidal effect and crop phytotoxicity)	4 (70 to less than 90% of herbicidal effect and crop phytotoxicity)	5 (90% or more of herbicidal effect and crop phytotoxicity)	5 (90% or more of herbicidal effect and crop phytotoxicity)	4 (70 to less than 90% of herbicidal effect and crop phytotoxicity)	5 (90% or more of herbicidal effect and crop phytotoxicity)	5 (90% or more of herbicidal effect and crop phytotoxicity)	4 (70 to less than 90% of herbicidal effect and crop phytotoxicity)	5 (90% or more of herbicidal effect and crop phytotoxicity)	5 (90% or more of herbicidal effect and crop phytotoxicity)	–	–	–	–
O=C1CCCC(O)=C1C(=O)c1ccc(C(F)(F)F)n(-c2ccc(OC(F)(F)F)cc2)c1=O [I-79]	5 (90% or more of herbicidal effect and crop phytotoxicity)	5 (90% or more of herbicidal effect and crop phytotoxicity)	5 (90% or more of herbicidal effect and crop phytotoxicity)	5 (90% or more of herbicidal effect and crop phytotoxicity)	–	–	–	–	5 (90% or more of herbicidal effect and crop phytotoxicity)	5 (90% or more of herbicidal effect and crop phytotoxicity)	5 (90% or more of herbicidal effect and crop phytotoxicity)	5 (90% or more of herbicidal effect and crop phytotoxicity)	5 (90% or more of herbicidal effect and crop phytotoxicity)	5 (90% or more of herbicidal effect and crop phytotoxicity)	5 (90% or more of herbicidal effect and crop phytotoxicity)
O=C1CCCC(O)=C1C(=O)c1ccc(C(F)(F)F)n(-c2ccccn2)c1=O [I-150]	5 (90% or more of herbicidal effect and crop phytotoxicity)	5 (90% or more of herbicidal effect and crop phytotoxicity)	5 (90% or more of herbicidal effect and crop phytotoxicity)	5 (90% or more of herbicidal effect and crop phytotoxicity)	5 (90% or more of herbicidal effect and crop phytotoxicity)	5 (90% or more of herbicidal effect and crop phytotoxicity)	5 (90% or more of herbicidal effect and crop phytotoxicity)	5 (90% or more of herbicidal effect and crop phytotoxicity)	5 (90% or more of herbicidal effect and crop phytotoxicity)	5 (90% or more of herbicidal effect and crop phytotoxicity)	5 (90% or more of herbicidal effect and crop phytotoxicity)	–	–	–	–
CCn1ncc(C(=O)c2ccc(C(F)(F)F)n(CCOCCOC)c2=O)c1O [IV-203]	5 (90% or more of herbicidal effect and crop phytotoxicity)	5 (90% or more of herbicidal effect and crop phytotoxicity)	5 (90% or more of herbicidal effect and crop phytotoxicity)	5 (90% or more of herbicidal effect and crop phytotoxicity)	5 (90% or more of herbicidal effect and crop phytotoxicity)	5 (90% or more of herbicidal effect and crop phytotoxicity)	5 (90% or more of herbicidal effect and crop phytotoxicity)	5 (90% or more of herbicidal effect and crop phytotoxicity)	5 (90% or more of herbicidal effect and crop phytotoxicity)	5 (90% or more of herbicidal effect and crop phytotoxicity)	5 (90% or more of herbicidal effect and crop phytotoxicity)	–	–	–	–
CS(=O)(=O)c1cccc(-n2c(C(F)(F)F)ccc(C(=O)C3=C(O)CCCC3=O)c2=O)c1 [I-82]	5 (90% or more of herbicidal effect and crop phytotoxicity)	5 (90% or more of herbicidal effect and crop phytotoxicity)	5 (90% or more of herbicidal effect and crop phytotoxicity)	5 (90% or more of herbicidal effect and crop phytotoxicity)	–	–	–	–	5 (90% or more of herbicidal effect and crop phytotoxicity)	5 (90% or more of herbicidal effect and crop phytotoxicity)	5 (90% or more of herbicidal effect and crop phytotoxicity)	5 (90% or more of herbicidal effect and crop phytotoxicity)	5 (90% or more of herbicidal effect and crop phytotoxicity)	5 (90% or more of herbicidal effect and crop phytotoxicity)	5 (90% or more of herbicidal effect and crop phytotoxicity)
CCCS(=O)(=O)Oc1c(C(=O)c2ccc(C(F)(F)F)n(-c3ccc(F)c(COC)c3)c2=O)cnn1C(C)C [IV-96]	3 (50 to less than 70% of herbicidal effect and crop phytotoxicity)	4 (70 to less than 90% of herbicidal effect and crop phytotoxicity)	4 (70 to less than 90% of herbicidal effect and crop phytotoxicity)	5 (90% or more of herbicidal effect and crop phytotoxicity)	5 (90% or more of herbicidal effect and crop phytotoxicity)	4 (70 to less than 90% of herbicidal effect and crop phytotoxicity)	3 (50 to less than 70% of herbicidal effect and crop phytotoxicity)	5 (90% or more of herbicidal effect and crop phytotoxicity)	4 (70 to less than 90% of herbicidal effect and crop phytotoxicity)	5 (90% or more of herbicidal effect and crop phytotoxicity)	5 (90% or more of herbicidal effect and crop phytotoxicity)	–	–	–	–
